{"source": "paper PMC5926742", "about": "(Japanese Journal of Cancer Research : Gann, 2001)", "target": "DNA polymerase β (Bos taurus, UniProt Q27958)", "experiment": "[methyl-3H]TTP incorporation into activated DNA, DE81 paper disc", "format": "biochemical"}
{"smiles": "Nc1ccn([C@@H]2O[C@H](COP(=O)(O)OP(=O)(O)OP(=O)(O)O)[C@@H](O)C2(F)F)c(=O)n1", "note": "[dFdCTP]", "values": [{"measurement": "IC50", "value": 450, "unit": "µM"}]}
{"smiles": "Nc1ccn([C@H]2CC[C@@H](COP(=O)(O)OP(=O)(O)OP(=O)(O)O)O2)c(=O)n1", "note": "[ddCTP]", "values": [{"measurement": "IC50", "value": 240, "unit": "µM"}]}
